Test results taken from US7504406B2, “Derivatives of pyrido[2,3-d]pyrimidine, the preparation thereof, and the therapeutic application of the same” (Sanofi-Aventis, priority 2005, dated 2009).

Experiments:
Assay type in all cases: cell-based
[1] = tested on: K-562 line; assay: MTS cell proliferation and viability test, K-562 line; conditions: Homo sapiens, K562, K-562 leukaemia line, 72 hours of incubation, read-out: IC50 (50% loss of cell proliferation and cell viability)
Procedure: The compounds of formula (I) according to the present invention were tested in vitro on a panel of tumour lines of human origin, originating: • from breast cancer: MDA-MB231 (American Type culture collection, Rockville, Md., USA, ATCC-HTB26), MDA-A1 or MDA-ADR (called multi-drug resistant MDR line, and described by E. Collomb et al., in Cytometry, 12(1):15-25, 1991), and MCF7 (ATCC-HTB22), • from prostate cancer: DU145 (ATCC-HTB81) and PC3 (ATCC-CRL1435), • from colon cancer: HCT116 (ATCC-CCL247) and HCT15 (ATCC-CCL225), • from lung cancer: H460 (described by Carmichael in Cancer Research 47 (4):936-942, 1987 and provided by the National Cancer Institute, Frederick Cancer Research and Development Center, Frederick, Md., USA), • from glioblastoma: SF268 (described by Westphal in Biochemical & Biophysical Research Communications 132 (1): 284-289, 1985 and provided by the National Cancer Institute, Frederick Cancer Research and Development Center, Frederick, Md., USA), • from leukaemia: CMLT1 (described by Kuriyama et al. in Blood, 74: 1989, 1381-1387, by Soda et al. in British Journal of Haematology, 59: 1985, 671-679 and by Drexler, in Leukemia Research, 18: 1994, 919-927 and provided by the company DSMZ (Deutsche Sammlung von Mikroorganismen und Zellkulturen GmbH) Mascheroder Weg 1b, 38124 Braunschweig, Germany), K-562 (described by Lozzio et al., J Natl Cancer Inst 50: 535 (1973), by Lozzio et al., Blood 45: 321 (1975), and provided by DSMZ No. ACC 10), KG-1a (described by Koeffler et al., Blood 56: 265 (1980), and provided by DSMZ No. ACC 421), and Kasumi-1 (described by Asou et al., Blood 77: 2031 (1991), and provided by DSMZ No. ACC 220).
The cell proliferation and viability were determined in a test using 3-(4,5-dimethylthiazol-2-yl)-5-(3-carboxymethoxyphenyl)-2-(4-sulphophenyl)-2H-tetrazolium (MTS) according to Fujishita T. et al., Oncology, 2003, 64 (4), 399-406. In this test, the mitochondrial ability of the live cells to convert MTS to a coloured compound is measured after 72 hours of incubation of a compound of formula (I) according to the invention. The concentrations of compound according to the invention which result in a 50% loss of cell proliferation and cell viability (IC50) are between 1 nM and 10 μM, depending on the tumor line and the compound tested. For example, compound No. 1 has an IC50 of 40 nM on the K-562 line, an IC50 of 50 nM on the KG-1a line and an IC50 of 40 nM on the Kasumi-1 line.

[2] = tested on: Kasumi-1 line; assay: MTS cell proliferation and viability test, Kasumi-1 line; conditions: Homo sapiens, Kasumi-1 leukaemia line, 72 hours of incubation, read-out: IC50 (50% loss of cell proliferation and cell viability)
Procedure: […]
(§1) The cell proliferation and viability were determined in a test using 3-(4,5-dimethylthiazol-2-yl)-5-(3-carboxymethoxyphenyl)-2-(4-sulphophenyl)-2H-tetrazolium (MTS) according to Fujishita T. et al., Oncology, 2003, 64 (4), 399-406. In this test, the mitochondrial ability of the live cells to convert MTS to a coloured compound is measured after 72 hours of incubation of a compound of formula (I) according to the invention. […]

[3] = tested on: KG-1a line; assay: MTS cell proliferation and viability test, KG-1a line; conditions: Homo sapiens, KG-1a leukaemia line, 72 hours of incubation, read-out: IC50 (50% loss of cell proliferation and cell viability)
Procedure: […]
as §1

[4] = tested on: SF268; assay: MTS cell proliferation and viability test, SF268 line; conditions: Homo sapiens, SF-268, SF268 glioblastoma line, 72 hours of incubation, read-out: IC50 (50% loss of cell proliferation and cell viability)
Procedure: […]
as §1

Structure (SMILES) | IC50 [1] [µM] | IC50 [2] [µM] | IC50 [3] [µM] | IC50 [4] [µM]
CC(C)(C)NC(=O)Nc1nc2nc(Nc3ccc4ncnn4c3)ncc2cc1-c1c(Cl)cccc1Cl [Compound No. 9, N-[6-(2,6-dichlorophenyl)-2-([1,2,4]triazolo[1,5-a]pyridin-6-ylamino)pyrido[2,3-d]pyrimidin-7-yl]-N′-(1,1-dimethylethyl)urea] | 0.019 |  |  | 
CC(C)(C)NC(=O)Nc1nc2nc(Nc3ccc4nsnc4c3)ncc2cc1-c1c(Cl)cccc1Cl [Compound No. 1, N-[2-(2,1,3-benzothiadiazol-5-ylamino)-6-(2,6-dichlorophenyl)pyrido[2,3-d]pyrimidin-7-yl]-N′-(1,1-dimethylethyl)urea] | 0.04 | 0.04 | 0.05 | 
CCN(CC)Cc1cc2cc(Nc3ncc4cc(-c5c(Cl)cccc5Cl)c(NC(=O)NC(C)(C)C)nc4n3)ccc2o1 [Compound No. 5, N-[6-(2,6-dichlorophenyl)-2-[[2-[(diethylamino)methyl]-5-benzofuranyl]amino]pyrido[2,3-d]pyrimidin-7-yl]-N′-(1,1-dimethylethyl)urea] | 0.005 |  |  | 
CCNC(=O)Nc1nc2nc(Nc3ccc4nsnc4c3)ncc2cc1-c1c(Cl)cccc1Cl [Compound No. 13, N-[2-(2,1,3-benzothiadiazol-5-ylamino)-6-(2,6-dichlorophenyl)pyrido[2,3-d]pyrimidin-7-yl]-N′-ethylurea] | 0.074 |  |  | 
CC(C)(C)NC(=O)Nc1nc2nc(Nc3ccc4oc(CN)nc4c3)ncc2cc1-c1c(Cl)cccc1Cl [Compound No. 7, N-[2-[[2-(aminomethyl)-5-benzoxazolyl]amino]-6-(2,6-dichlorophenyl)pyrido[2,3-d]pyrimidin-7-yl]-N′-(1,1-dimethylethyl)urea] |  |  |  | 0.043
